According to patent publication US20250120916A1, “NANOTECHNOLOGY FOR CHEMOTHERA0PY DRUG CAPTURE” (The Regents of the University of California, priority 2021, published 2025):
Structures can show the parent of a compound that is named as a salt. Where two headings read alike, the source gives them in different places.

Key:
[1] = Hydrodynamic size (DLS) and ζ-potential measurements; format: physicochemical
Procedure: Hydrodynamic size and ζ-potential measurements: A Zetasizer Nano ZS from Malvern Panalytical Ltd was used to conduct dynamic light scattering (DLS) and electrokinetic measurements in folded capillary cells (DTS1070). Samples were prepared with an ENCC concentration of 0.1 mg mL−1 in 1 mg mL−1 of NaCl solution A final DOX concentration of 0.03 mg mL−1 was used to have an ˜1:10 molar ratio of DOX to the carboxylate of ENCC For ζ-potential measurements on DOX, the concentration was lowered to 0.003 mg mL−1. At least three measurements were taken for each DLS experiment, with 11 runs per measurement. For the ζ-potential tests, the number of measurements was at least three, with up to 100 runs per measurement.

[2] = Biodetoxification test, HUVECs; conditions: human
Procedure: (§1) Biodetoxification tests: To determine the biodetoxification effect of ENCC, 5×10^3 NIH/3T3 cells or HUVECs were seeded in 96-well plates with 200 μL of DMEM supplemented with FBS (10% v/v) and 1% v/v of Pen-Strep or EGM bullet kit HUVEC media, respectively. The cells were allowed to attach to the bottom of wells for 1 h, the media were aspirated, and the cells were rinsed with 200 μL of DPBS, followed by the addition of 200 μL of corresponding media including DOX (final concentration=400 μg mL−1), which was previously detoxified by adding ENCC (final concentration=1 mg mL−1), centrifuged at 1000 rpm for 3 min, and separated from the precipitate. The control experiments were conducted in corresponding DOX-free cell culture media or DOX-containing media without ENCC treatment. Each group consisted of 5 wells. After 8 h, the media was aspirated, the cells were rinsed twice with 200 μL of DPBS, followed by the addition of 100 μL of PrestoBlue™ reagent to each well. The cells were incubated for 1 h, and then the PrestoBlue™ absorbance was recorded using the microplate reader. Immediately afterwards, the cells were again rinsed twice with 200 μL, of DPBS, followed by the addition of 150 μL, of the Live/Dead reagents. The cells were incubated for 90 min and imaged using the fluorescence microscope. The fluorescence images were analyzed using the Imagej Software.(62)

HUVECs = assay: Biodetoxification test, HUVECs; conditions: untreated DOX 400 μg mL−1 media, 8 h
Procedure: as §1

fibroblast = conditions: literature (75); cited from earlier work
[3] = Biodetoxification test, NIH/3T3 fibroblasts; conditions: mouse, NIH/3T3 fibroblasts
Procedure: as §1

NIH/3T3 fibroblasts = assay: Biodetoxification test, NIH/3T3 fibroblasts; conditions: NIH/3T3, untreated DOX 400 μg mL−1 media, 8 h
Procedure: as §1

[4] = system: red blood cells (RBCs) in human whole blood; assay: Hemolysis assessment (ASTM E2524-08); format: cell-based
Procedure: Hemolysis assessment: The hemolytic activity of ENCC was measured via exposing human whole blood, withdrawn from 3 healthy volunteer donors by another lab, to varying concentrations of ENCC and measuring the concentration of released hemoglobin in plasma according to the American Society for Testing and Materials (ASTM) E2524-08 (2013) standard analysis of hemolytic activity of nanoparticles.(61) A colorimetric technique was used to measure the oxidation of […] (Drabkin's reagent) at an absorbance of 540 nm A calibration curve was obtained using […] of pure human hemoglobin to quantify the concentration of released hemoglobin in heparinized human whole blood exposed to ENCC The blood samples were diluted in DPBS to have 10±2 mg of hemoglobin per mL. ENCC was added to a microcentrifuge tube, followed by the addition of DPBS (800 μL) and the diluted blood (100 μL). After gently mixing the samples, they were incubated for 3 h±15 min at 37° C. and centrifuged for 15 min at 14000 rpm and ambient temperature. […] A microplate reader (540 nm, BioTek UV/vis Synnergy 2, USA) was then used to measure the relative absorbance of each well against the reagent blank to correct the background (blood-free samples) absorbance. The hemolysis percentage was measured based on the hemoglobin concentration in the samples divided by the total blood hemoglobin (˜10 mg mL−1). […]

[5] = DOX:COO− ~0.1, ENCC 100 μg mL−1

With `COc1cccc2c1C(=O)c1c(O)c3c(c(O)c1C2=O)C[C@@](O)(C(=O)CO)C[C@@H]3O[C@H]1C[C@H](N)[C@H](O)[C@H](C)O1` [DOX, Doxorubicin hydrochloride] the “hydrodynamic size after ENCC addition” value [1, 5] was ~350 nm, the “ζ-potential after ENCC addition” value [1, 5] was ~−32 mV and the “hydrodynamic size of DOX aggregates” value ([1]; before ENCC addition) was ~66 nm. The “ζ-potential of DOX aggregates” value ([1]; before ENCC addition) was “~+24 mV”, the viability at 8 h, 400 μg mL−1 [2] was ~35% and the “decrease in metabolic activity (PrestoBlue)” value (HUVECs) was “more than 2000%”. For the same compound, the “DOX concentration that induces fibroblast cellular toxicity” value (fibroblast) was “above 5×10^−5 M”, the viability at 8 h, 400 μg mL−1 [3] was < 10% and the “decrease in metabolic activity (PrestoBlue)” value (NIH/3T3 fibroblasts) was “more than 2000%”.

In the case of Triton X-100, the “hemolysis percentage (controls)” value ([4]; Triton X-100 1% v/v positive control, PEG 4.4% v/v negative control) was > 95%.

In the case of polyethylene glycol [PEG], the “hemolysis percentage (controls)” value [4] was “does not induce significant hemolysis”.
